Measurements reported in ChEMBL document CHEMBL5465560, “Selectivity Literature for EUbOPEN Chemogenomic Library” (2024).

Key:
[1] = biological target: Bromodomain-containing protein 4 (Homo sapiens, UniProt O60885); test: Selectivity interaction (Human bromodomain panel (DSF assay)) EUB0000233b BRD4
[2] = biological target: Serine/threonine-protein kinase OSR1 (Homo sapiens) (UniProt O95747); test: Selectivity interaction (KinomeScan (DiscoverX)) EUB0001079a OXSR1; details: at 1 µM
[3] = biological target: Dual specificity mitogen-activated protein kinase kinase 1 (Homo sapiens, UniProt Q02750); test: Selectivity interaction (Kinase panel (Z-LYTE Assay)) EUB0001632a MAP2K1; details: at 10 µM
Sequence of Dual specificity mitogen-activated protein kinase kinase 1 (Q02750 whole entry): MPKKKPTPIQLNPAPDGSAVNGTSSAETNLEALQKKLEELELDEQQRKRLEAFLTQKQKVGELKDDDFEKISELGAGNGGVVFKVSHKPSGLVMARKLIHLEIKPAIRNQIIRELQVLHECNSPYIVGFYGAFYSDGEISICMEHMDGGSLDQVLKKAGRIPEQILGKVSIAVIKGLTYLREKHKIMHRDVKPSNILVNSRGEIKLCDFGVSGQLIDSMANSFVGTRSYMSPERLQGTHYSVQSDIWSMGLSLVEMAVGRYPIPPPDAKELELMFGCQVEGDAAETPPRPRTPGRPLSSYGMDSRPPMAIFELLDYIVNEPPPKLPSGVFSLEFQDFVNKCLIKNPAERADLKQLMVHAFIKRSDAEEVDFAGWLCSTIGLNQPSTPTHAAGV

[4] = biological target: Cyclin-dependent kinase 11B (Homo sapiens) (UniProt P21127); test: Selectivity interaction (KinomeScan (DiscoverX)) EUB0000666a CDK11B; details: at 10 µM
Sequence of Cyclin-dependent kinase 11B (Homo sapiens) (P21127 whole entry): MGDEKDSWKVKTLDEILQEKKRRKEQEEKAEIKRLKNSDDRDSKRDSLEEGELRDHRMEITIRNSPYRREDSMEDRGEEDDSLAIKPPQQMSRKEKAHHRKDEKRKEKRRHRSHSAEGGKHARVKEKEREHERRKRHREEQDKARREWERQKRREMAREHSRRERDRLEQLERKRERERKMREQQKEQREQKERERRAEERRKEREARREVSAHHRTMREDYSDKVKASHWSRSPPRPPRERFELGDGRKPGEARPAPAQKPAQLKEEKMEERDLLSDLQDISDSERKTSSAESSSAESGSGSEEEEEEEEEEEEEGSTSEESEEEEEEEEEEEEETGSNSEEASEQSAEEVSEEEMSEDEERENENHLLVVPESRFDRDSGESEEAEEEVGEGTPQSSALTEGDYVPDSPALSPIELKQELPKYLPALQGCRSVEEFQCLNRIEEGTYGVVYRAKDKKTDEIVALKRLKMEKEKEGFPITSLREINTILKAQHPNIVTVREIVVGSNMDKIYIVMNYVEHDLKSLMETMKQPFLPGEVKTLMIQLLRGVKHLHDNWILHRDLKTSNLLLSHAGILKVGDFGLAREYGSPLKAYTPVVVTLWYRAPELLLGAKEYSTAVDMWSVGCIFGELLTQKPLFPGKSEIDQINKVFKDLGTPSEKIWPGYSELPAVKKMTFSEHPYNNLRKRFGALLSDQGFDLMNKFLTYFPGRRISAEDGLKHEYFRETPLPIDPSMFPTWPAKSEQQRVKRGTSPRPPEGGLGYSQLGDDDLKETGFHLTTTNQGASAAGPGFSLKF

[5] = biological target: T1, RNA 5'-monophosphate methyltransferase (Homo sapiens) (UniProt Q7Z5W3); test: Selectivity interaction (Transferase panel (protein, RNA, and DNA methyltransferases. and EP300 (acetyltransferase))) EUB0000270b BCDIN3D
T1 sequence (whole entry): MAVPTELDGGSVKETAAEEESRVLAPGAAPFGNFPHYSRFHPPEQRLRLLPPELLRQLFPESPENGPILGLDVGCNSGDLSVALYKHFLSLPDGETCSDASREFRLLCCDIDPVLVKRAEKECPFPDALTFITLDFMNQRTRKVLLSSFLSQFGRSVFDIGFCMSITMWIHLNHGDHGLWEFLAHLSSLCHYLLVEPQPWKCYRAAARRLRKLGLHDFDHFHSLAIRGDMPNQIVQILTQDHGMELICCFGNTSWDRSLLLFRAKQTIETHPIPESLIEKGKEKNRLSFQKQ

[6] = biological target: DNA (cytosine-5)-methyltransferase 1 (Homo sapiens) (UniProt P26358); test: Selectivity interaction (Transferase panel (protein, RNA, and DNA methyltransferases. and EP300 (acetyltransferase))) EUB0000270b DNMT1
Sequence of DNA (cytosine-5)-methyltransferase 1 (Homo sapiens) (P26358 whole entry): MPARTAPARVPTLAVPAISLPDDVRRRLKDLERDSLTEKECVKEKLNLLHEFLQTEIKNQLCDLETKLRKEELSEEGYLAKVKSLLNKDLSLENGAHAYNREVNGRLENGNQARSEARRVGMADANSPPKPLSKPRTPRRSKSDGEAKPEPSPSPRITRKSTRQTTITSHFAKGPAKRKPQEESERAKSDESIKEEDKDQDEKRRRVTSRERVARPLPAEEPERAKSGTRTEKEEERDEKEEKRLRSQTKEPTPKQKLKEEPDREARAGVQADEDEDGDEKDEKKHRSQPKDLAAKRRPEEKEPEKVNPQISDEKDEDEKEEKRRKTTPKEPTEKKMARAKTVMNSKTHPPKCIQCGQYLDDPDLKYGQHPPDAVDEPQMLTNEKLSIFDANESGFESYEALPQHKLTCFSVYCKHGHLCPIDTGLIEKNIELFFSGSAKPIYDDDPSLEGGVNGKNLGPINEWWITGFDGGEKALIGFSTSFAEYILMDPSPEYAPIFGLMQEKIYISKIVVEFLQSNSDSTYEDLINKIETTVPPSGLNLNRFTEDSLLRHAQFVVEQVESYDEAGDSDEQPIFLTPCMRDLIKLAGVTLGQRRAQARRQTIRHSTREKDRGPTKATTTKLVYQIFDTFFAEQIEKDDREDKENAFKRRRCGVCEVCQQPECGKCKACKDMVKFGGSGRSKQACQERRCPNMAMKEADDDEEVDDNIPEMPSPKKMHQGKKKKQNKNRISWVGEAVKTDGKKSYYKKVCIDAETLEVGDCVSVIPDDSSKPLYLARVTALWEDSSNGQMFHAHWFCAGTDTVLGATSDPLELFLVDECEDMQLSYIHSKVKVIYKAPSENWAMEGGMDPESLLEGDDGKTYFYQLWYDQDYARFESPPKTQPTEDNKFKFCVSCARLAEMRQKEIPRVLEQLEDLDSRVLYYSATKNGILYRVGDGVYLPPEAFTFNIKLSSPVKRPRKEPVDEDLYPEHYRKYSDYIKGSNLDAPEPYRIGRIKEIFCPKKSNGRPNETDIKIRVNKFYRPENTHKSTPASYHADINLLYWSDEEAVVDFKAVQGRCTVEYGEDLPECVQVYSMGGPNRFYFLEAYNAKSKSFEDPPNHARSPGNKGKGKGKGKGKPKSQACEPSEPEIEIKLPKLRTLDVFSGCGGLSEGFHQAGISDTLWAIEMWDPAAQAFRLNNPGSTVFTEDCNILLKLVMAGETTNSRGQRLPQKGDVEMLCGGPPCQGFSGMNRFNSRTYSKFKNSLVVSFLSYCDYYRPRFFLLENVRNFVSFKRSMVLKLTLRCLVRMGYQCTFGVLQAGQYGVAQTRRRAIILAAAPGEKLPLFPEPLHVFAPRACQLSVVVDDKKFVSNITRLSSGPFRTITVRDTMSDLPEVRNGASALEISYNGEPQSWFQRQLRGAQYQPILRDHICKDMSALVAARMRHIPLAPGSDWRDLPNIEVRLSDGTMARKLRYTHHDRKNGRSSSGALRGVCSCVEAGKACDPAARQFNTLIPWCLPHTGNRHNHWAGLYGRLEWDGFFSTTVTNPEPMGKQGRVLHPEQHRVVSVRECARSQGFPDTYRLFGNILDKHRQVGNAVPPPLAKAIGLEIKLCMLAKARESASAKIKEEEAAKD

[7] = biological target: Tyrosine-protein kinase Fgr (Homo sapiens) (UniProt P09769); details: at 10 µM
Sequence of Tyrosine-protein kinase Fgr (Homo sapiens) (P09769 2-529 limits assumed): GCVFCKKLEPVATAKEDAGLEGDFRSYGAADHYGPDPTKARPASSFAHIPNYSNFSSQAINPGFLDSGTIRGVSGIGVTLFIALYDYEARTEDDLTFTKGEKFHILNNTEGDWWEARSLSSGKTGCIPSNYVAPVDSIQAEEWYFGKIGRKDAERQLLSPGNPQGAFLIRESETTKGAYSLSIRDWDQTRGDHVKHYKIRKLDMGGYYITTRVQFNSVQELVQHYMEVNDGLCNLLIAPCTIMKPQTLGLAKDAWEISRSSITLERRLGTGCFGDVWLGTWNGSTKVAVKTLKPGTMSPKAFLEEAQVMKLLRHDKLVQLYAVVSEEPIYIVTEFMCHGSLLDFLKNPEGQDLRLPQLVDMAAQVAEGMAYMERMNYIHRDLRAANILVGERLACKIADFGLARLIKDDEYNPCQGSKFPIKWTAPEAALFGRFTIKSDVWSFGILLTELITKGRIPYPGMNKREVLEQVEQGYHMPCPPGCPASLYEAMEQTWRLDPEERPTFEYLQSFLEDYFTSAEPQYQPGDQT

[8] = biological target: T2, Atypical kinase COQ8B, mitochondrial (Homo sapiens) (UniProt Q96D53); test: Selectivity interaction (KinomeScan (DiscoverX)) EUB0001049a ADCK4; details: at 1 µM
T2 sequence (whole entry): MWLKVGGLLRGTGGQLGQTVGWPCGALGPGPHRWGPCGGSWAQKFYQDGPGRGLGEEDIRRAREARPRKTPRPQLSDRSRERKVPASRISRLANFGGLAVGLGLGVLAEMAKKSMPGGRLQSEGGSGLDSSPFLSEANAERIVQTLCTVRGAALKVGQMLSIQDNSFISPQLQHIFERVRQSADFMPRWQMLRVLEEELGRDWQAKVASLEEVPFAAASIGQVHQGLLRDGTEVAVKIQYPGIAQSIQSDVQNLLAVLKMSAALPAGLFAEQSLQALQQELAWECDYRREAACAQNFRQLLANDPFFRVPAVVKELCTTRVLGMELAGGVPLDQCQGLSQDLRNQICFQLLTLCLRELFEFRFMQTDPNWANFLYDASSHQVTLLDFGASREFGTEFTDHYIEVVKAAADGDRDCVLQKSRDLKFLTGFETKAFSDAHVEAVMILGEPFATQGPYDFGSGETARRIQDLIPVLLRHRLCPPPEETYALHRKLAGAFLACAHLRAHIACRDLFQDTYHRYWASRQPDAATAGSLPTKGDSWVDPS

[9] = biological target: Receptor-type tyrosine-protein kinase FLT3 (Homo sapiens) (UniProt P36888); test: (§1) Selectivity interaction (SelectScreen profiling (Invitrogen)) EUB0000607a FLT3; details: at 2 µM
[10] = tested on: T3, Receptor-type tyrosine-protein kinase FLT3 (Homo sapiens), P36888 [D835Y]; test: as §1; details: at 2 µM
T3 sequence (whole entry): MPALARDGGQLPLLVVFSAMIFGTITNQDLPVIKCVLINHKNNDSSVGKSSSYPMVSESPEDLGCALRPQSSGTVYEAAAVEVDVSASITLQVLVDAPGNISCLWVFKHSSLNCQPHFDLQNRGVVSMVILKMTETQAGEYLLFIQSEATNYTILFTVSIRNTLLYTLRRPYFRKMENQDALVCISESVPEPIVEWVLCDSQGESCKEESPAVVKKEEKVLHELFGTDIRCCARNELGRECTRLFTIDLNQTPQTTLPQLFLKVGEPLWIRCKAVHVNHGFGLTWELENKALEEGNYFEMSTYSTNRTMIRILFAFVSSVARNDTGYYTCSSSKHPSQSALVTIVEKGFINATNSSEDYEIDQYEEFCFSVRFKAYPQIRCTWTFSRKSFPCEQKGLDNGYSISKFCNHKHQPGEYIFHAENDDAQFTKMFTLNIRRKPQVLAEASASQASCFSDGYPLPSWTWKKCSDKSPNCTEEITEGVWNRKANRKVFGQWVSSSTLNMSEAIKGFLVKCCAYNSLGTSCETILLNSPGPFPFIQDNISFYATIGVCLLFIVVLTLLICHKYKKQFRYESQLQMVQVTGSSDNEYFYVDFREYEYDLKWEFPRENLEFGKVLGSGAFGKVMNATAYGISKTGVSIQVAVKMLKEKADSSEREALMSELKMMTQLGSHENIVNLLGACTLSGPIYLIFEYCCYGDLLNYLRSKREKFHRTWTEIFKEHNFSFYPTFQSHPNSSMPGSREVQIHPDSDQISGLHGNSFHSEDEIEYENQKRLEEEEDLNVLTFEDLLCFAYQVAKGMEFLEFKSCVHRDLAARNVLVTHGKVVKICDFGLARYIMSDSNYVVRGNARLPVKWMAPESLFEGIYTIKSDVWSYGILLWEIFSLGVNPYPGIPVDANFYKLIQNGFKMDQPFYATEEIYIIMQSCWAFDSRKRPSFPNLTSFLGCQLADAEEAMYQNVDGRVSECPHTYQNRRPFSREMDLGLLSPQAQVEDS

[11] = biological target: Serine/threonine-protein kinase Chk2 (Homo sapiens) (UniProt O96017); test: Selectivity interaction (ActivX KiNativ screen (kinase selectivity in THP-1 cell lysates)) EUB0000639a CHEK2; format: subcellular; details: lysate
Sequence of Serine/threonine-protein kinase Chk2 (Homo sapiens) (O96017 whole entry): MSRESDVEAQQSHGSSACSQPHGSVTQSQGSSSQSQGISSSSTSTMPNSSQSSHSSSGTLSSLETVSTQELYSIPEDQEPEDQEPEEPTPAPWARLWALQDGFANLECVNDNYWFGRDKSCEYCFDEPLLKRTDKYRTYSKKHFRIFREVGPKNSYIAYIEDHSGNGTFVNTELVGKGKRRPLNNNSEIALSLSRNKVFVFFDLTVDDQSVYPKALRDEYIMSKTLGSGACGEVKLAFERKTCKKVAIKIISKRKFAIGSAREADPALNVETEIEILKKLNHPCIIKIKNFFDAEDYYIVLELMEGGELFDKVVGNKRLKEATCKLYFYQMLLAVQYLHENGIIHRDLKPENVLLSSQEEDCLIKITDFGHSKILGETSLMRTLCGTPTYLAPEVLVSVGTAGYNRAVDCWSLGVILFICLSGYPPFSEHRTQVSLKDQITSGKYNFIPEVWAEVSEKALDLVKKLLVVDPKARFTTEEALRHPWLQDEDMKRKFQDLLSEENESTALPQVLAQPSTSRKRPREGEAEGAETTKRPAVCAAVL

[12] = biological target: Dual specificity mitogen-activated protein kinase kinase 2 (Homo sapiens) (UniProt P36507); test: Selectivity interaction (ActivX KiNativ screen (kinase selectivity in THP-1 cell lysates)) EUB0000639a MAP2K2; format: subcellular; details: lysate, at 0.01 µM
[13] = biological target: Mitogen-activated protein kinase kinase kinase 11 (Homo sapiens) (UniProt Q16584); test: Selectivity interaction (ActivX KiNativ screen (kinase selectivity in THP-1 cell lysates)) EUB0000639a MAP3K11; format: subcellular; details: lysate
Sequence of Mitogen-activated protein kinase kinase kinase 11 (Homo sapiens) (Q16584 whole entry, looked up): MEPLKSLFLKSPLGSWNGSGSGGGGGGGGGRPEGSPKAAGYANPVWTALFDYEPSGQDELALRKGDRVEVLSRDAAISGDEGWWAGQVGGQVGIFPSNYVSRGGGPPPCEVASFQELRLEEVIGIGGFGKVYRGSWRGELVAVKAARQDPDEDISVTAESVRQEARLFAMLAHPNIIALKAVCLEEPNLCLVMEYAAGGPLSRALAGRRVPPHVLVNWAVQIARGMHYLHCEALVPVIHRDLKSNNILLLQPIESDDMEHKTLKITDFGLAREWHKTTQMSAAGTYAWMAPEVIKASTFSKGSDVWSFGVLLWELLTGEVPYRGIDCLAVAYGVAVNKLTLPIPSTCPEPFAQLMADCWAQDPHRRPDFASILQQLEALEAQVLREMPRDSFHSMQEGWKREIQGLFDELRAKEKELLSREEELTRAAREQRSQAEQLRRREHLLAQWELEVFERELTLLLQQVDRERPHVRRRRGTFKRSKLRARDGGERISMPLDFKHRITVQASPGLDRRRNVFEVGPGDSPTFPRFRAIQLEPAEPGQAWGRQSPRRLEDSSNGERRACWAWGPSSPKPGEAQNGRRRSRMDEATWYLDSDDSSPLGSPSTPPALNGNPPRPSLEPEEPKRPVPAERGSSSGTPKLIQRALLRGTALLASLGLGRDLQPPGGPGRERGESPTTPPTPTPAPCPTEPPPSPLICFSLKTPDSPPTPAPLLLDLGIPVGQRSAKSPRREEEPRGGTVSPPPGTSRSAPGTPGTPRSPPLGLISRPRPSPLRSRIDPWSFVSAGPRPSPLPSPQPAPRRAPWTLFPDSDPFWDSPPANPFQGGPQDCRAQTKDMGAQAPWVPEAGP

[14] = biological target: Platelet-derived growth factor receptor alpha (Homo sapiens, UniProt P16234); test: Selectivity interaction (KinomeScan (DiscoverX)) EUB0000655a PDGFRA; details: at 10 µM

Work on `CN(C)CCCOc1ccc(-c2cc(NCCCn3cccn3)nc(S(C)(=O)=O)n2)cc1` yielded a dTM [1] of under 2 K.
`Nc1cnc(N2CCc3cc(S(=O)(=O)Nc4c(F)cc(Cl)cc4F)cc(N4CCCC4=O)c32)nc1` [TP-020n] gave a % of control [2] of 75%.
`Cn1cc(-n2cnc3c(NCc4nc5cc(Cl)c(Cl)cc5[nH]4)nc(N4CCOCC4)nc32)cn1` was tested, and the % of control [3] was -2.06%.
`O=C(NOC[C@H](O)CO)c1ccc(F)c(F)c1Nc1ccc(I)cc1F` gave a % of control [4] of 97%.
`Cc1cc(CN)cc(C)c1-c1ncn(C)c1-c1cncn1C` showed a % activity ([5]; at 1 µM) of over 90%, a % activity ([5]; at 10 µM) of over 80% and a % activity ([6]; at 1 µM) of over 90%. It also gave a % activity ([6]; at 10 µM) of over 80%.
For `Cc1cc([C@@H](C)Nc2ccccc2C(=O)O)c2nc(N3CCOCC3)cc(=O)n2c1` [AZD-6482], the % of control [7] was 95%.
Work on `COc1cc(Nc2nc(C)cc(-c3cnn4nc(OC)ccc34)n2)cc(C(F)(F)F)c1` yielded a % of control [8] of 79%.
With `CNC(=O)Nc1ccc(-c2nc(N3CC4CCC(C3)O4)c3cnn(C4CCC5(CC4)OCCO5)c3n2)cc1` the % of inhibition [9] was 17% and the % of inhibition [10] was 7%.
Work on `CC[C@@H]1[C@H](F)C(=O)N[C@@H]1COc1nccc2cc(C(N)=O)c(OC)cc12` [ZIMLOVISERTIB] yielded a % of inhibition ([11]; at 0.01 µM) of 4.5%, a % of inhibition ([11]; at 0.04 µM) of 8.5% and a % of inhibition ([11]; at 0.2 µM) of 3.8%. It also gave a % of inhibition ([11]; at 1 µM) of 30.1%, a % of inhibition ([11]; at 5 µM) of 58.9% and a % of inhibition [12] of -2%. The % of inhibition ([13]; at 0.01 µM) was 3.8%, the % of inhibition ([13]; at 0.04 µM) was -0.9% and the % of inhibition ([13]; at 0.2 µM) was 5%. The % of inhibition ([13]; at 1 µM) was 8.5% and the % of inhibition ([13]; at 5 µM) was 17%.
Molecule `CN(C)CCOc1ccc(-c2nc(-c3ccncc3)c(-c3ccc4c(c3)CC/C4=N\O)[nH]2)cc1` has a % of control [14] of 100%.
